Measurements reported in patent US20260198493A1, “HYDRAZIDE COMPOUND AND AGRICULTURAL/HORTICULTURAL FUNGICIDE” (Nippon Soda Co., Ltd., priority 2022, published 2026).

How the values were obtained:
Botrytis cinerea [1] = format: cell-based; details: 120 h, 25 ppm by volume, Vogel medium, 20° C., five days, dark, read-out: growth inhibition ratio
Fusarium graminearum = assay: microbe, parasite or virus in culture; format: cell-based; details: 96 h, read-out: growth inhibition ratio
Botrytis cinerea [2] = assay: Control test of cucumber gray mold (sprayed young cucumber seedlings); format: in vivo; details: 96 h, four days after inoculation; for pest or weed control at 25 ppm: 25 ppm by mass spray; for pest or weed control at 125 ppm: 125 ppm by mass spray
Experimental: Then, the drug liquid was sprayed onto young cucumber seedlings cultivated in a nursery pot (variety “Jihai”-based, cotyledon stage), and then air-dried. […] They were left still in a moist room at 20° C. Four days after inoculation, leaves of the young cucumber seedlings were visually observed, and the control value was calculated from the lesion area ratio in accordance with the following equation. [formula]

[3] = tested on: Erysiphe graminis f.sp.tritici; assay: Control test of wheat powdery mildew disease (sprayed young wheat seedlings); format: in vivo; details: Blumeria graminis, 144 h, 125 ppm by mass spray, six days after inoculation
Colletotrichum acutatum = assay: Fungicidal effect test against fungi causing apple anthracnose; details: 96 h, read-out: growth inhibition ratio
Glomerella cingulata = assay: Fungicidal effect test against fungi causing grape ripe rot disease; details: Colletotrichum gloeosporioides, 72 h, read-out: growth inhibition ratio
Venturia inaequalis = assay: Control test of apple scab disease (sprayed young apple seedlings); format: in vivo; details: 125 ppm by mass spray, 12 to 14 days after inoculation

Cc1ccc(CN(C=O)NC(=O)c2cc(C)nnc2Oc2cccc(C3CC3)c2F)c(C)c1 [b-3, 3-(3-cyclopropyl-2-fluorophenoxy)-N′-(2,4-dimethylbenzyl)-N′-formyl-6-methylpyridazine-4-carbohydrazide]
≥ 75%: inhibition of growth at 25 ppm (Botrytis cinerea [1]) | inhibition of growth at 25 ppm (Fusarium graminearum) | pest or weed control at 25 ppm (Botrytis cinerea [2]) | pest or weed control at 125 ppm (Botrytis cinerea [2]) | pest or weed control at 125 ppm [3] | inhibition of growth at 25 ppm (Colletotrichum acutatum) | inhibition of growth at 25 ppm (Glomerella cingulata)

COC(=O)N(Cc1ccc(C)cc1C)NC(=O)c1cc(C)nnc1Oc1cccc(C2CC2)c1F [b-6, Methyl 2-(3-(3-cyclopropyl-2-fluorophenoxy)-6-methylpyridazine-4-carbonyl)-1-(2,4-dimethylbenzyl)hydrazine-1-carboxylate]
≥ 75%: inhibition of growth at 25 ppm (Fusarium graminearum) | pest or weed control at 25 ppm (Botrytis cinerea [2]) | pest or weed control at 125 ppm (Botrytis cinerea [2]) | pest or weed control at 125 ppm (Venturia inaequalis) | pest or weed control at 125 ppm [3]

Cc1ccc(CN(C=O)NC(=O)c2cc(C)ncc2Oc2cccc(C3CC3)c2F)c(C)c1 [b-14]
≥ 75%: inhibition of growth at 25 ppm (Botrytis cinerea [1]) | inhibition of growth at 25 ppm (Fusarium graminearum) | pest or weed control at 25 ppm (Botrytis cinerea [2]) | pest or weed control at 125 ppm (Botrytis cinerea [2]) | pest or weed control at 125 ppm [3] | inhibition of growth at 25 ppm (Colletotrichum acutatum) | inhibition of growth at 25 ppm (Glomerella cingulata)

COC(=O)N(Cc1ccc(C)cc1C)NC(=O)c1c(Oc2cccc(C3CC3)c2F)nnc(Cl)c1C [b-15]
≥ 75%: inhibition of growth at 25 ppm (Botrytis cinerea [1]) | inhibition of growth at 25 ppm (Fusarium graminearum) | pest or weed control at 25 ppm (Botrytis cinerea [2]) | pest or weed control at 125 ppm (Botrytis cinerea [2]) | pest or weed control at 125 ppm (Venturia inaequalis) | pest or weed control at 125 ppm [3] | inhibition of growth at 25 ppm (Colletotrichum acutatum) | inhibition of growth at 25 ppm (Glomerella cingulata)

COC(=O)N(Cc1ccc(C)cc1C)NC(=O)c1cc(C)ncc1Oc1cccc(C2CC2)c1F [b-16]
≥ 75%: inhibition of growth at 25 ppm (Botrytis cinerea [1]) | inhibition of growth at 25 ppm (Fusarium graminearum) | pest or weed control at 25 ppm (Botrytis cinerea [2]) | pest or weed control at 125 ppm (Botrytis cinerea [2]) | pest or weed control at 125 ppm (Venturia inaequalis) | pest or weed control at 125 ppm [3] | inhibition of growth at 25 ppm (Colletotrichum acutatum) | inhibition of growth at 25 ppm (Glomerella cingulata)

CCc1cc(C(=O)NN(Cc2ccc(C)cc2C)C(=O)OC)c(Oc2cccc(C3CC3)c2F)nn1 [b-27]
≥ 75%: inhibition of growth at 25 ppm (Botrytis cinerea [1]) | inhibition of growth at 25 ppm (Fusarium graminearum) | pest or weed control at 25 ppm (Botrytis cinerea [2]) | pest or weed control at 125 ppm (Botrytis cinerea [2]) | inhibition of growth at 25 ppm (Colletotrichum acutatum) | inhibition of growth at 25 ppm (Glomerella cingulata)

COC(=O)N(Cc1ccc(C)cc1C)NC(=O)c1cc(C)ncc1Oc1cccc(C2CC2)c1 [b-32]
≥ 75%: inhibition of growth at 25 ppm (Botrytis cinerea [1]) | inhibition of growth at 25 ppm (Fusarium graminearum) | pest or weed control at 25 ppm (Botrytis cinerea [2]) | inhibition of growth at 25 ppm (Colletotrichum acutatum) | inhibition of growth at 25 ppm (Glomerella cingulata)

COC(=O)N(Cc1ccc(C)cc1C)NC(=O)c1cc(C)nnc1Oc1cccc(C#N)c1 [b-37]
≥ 75%: inhibition of growth at 25 ppm (Botrytis cinerea [1]) | inhibition of growth at 25 ppm (Fusarium graminearum) | pest or weed control at 125 ppm (Botrytis cinerea [2]) | pest or weed control at 125 ppm [3] | inhibition of growth at 25 ppm (Colletotrichum acutatum) | inhibition of growth at 25 ppm (Glomerella cingulata)

COC(=O)N(Cc1ccc(OC)cc1OC)NC(=O)c1cc(C)ncc1Oc1cccc(Br)c1 [b-87]
≥ 75%: inhibition of growth at 25 ppm (Botrytis cinerea [1]) | inhibition of growth at 25 ppm (Fusarium graminearum) | inhibition of growth at 25 ppm (Colletotrichum acutatum) | inhibition of growth at 25 ppm (Glomerella cingulata)

COC(=O)N(Cc1ccc(C)cc1C)NC(=O)c1cc(C2CC2)ncc1Oc1cccc(C2CC2)c1F [b-116]
≥ 75%: inhibition of growth at 25 ppm (Botrytis cinerea [1]) | inhibition of growth at 25 ppm (Fusarium graminearum) | pest or weed control at 25 ppm (Botrytis cinerea [2]) | inhibition of growth at 25 ppm (Colletotrichum acutatum) | inhibition of growth at 25 ppm (Glomerella cingulata)

COC(=O)N(Cc1ccc(C)cc1C)NC(=O)c1cc(C#N)ncc1Oc1cccc(C2CC2)c1F [b-119]
≥ 75%: inhibition of growth at 25 ppm (Botrytis cinerea [1]) | inhibition of growth at 25 ppm (Fusarium graminearum) | pest or weed control at 25 ppm (Botrytis cinerea [2]) | inhibition of growth at 25 ppm (Colletotrichum acutatum) | inhibition of growth at 25 ppm (Glomerella cingulata)

COC(=O)N(Cc1ccc(N(C)C)cc1C)NC(=O)c1cc(C)ncc1Oc1cccc(C2CC2)c1F [b-126]
≥ 75%: inhibition of growth at 25 ppm (Botrytis cinerea [1]) | inhibition of growth at 25 ppm (Fusarium graminearum) | pest or weed control at 125 ppm (Botrytis cinerea [2]) | inhibition of growth at 25 ppm (Colletotrichum acutatum) | inhibition of growth at 25 ppm (Glomerella cingulata)

COC(=O)N(Cc1ccc(C#N)cc1C)NC(=O)c1cc(C)ncc1Oc1cccc(C2CC2)c1F [b-128]
≥ 75%: inhibition of growth at 25 ppm (Botrytis cinerea [1]) | inhibition of growth at 25 ppm (Fusarium graminearum) | inhibition of growth at 25 ppm (Colletotrichum acutatum) | inhibition of growth at 25 ppm (Glomerella cingulata)

COC(=O)N(Cc1ccc(C)cc1C)NC(=O)c1cc(C)nnc1Oc1cccc([N+](=O)[O-])c1 [b-135]
≥ 75%: inhibition of growth at 25 ppm (Botrytis cinerea [1]) | inhibition of growth at 25 ppm (Fusarium graminearum) | pest or weed control at 25 ppm (Botrytis cinerea [2]) | inhibition of growth at 25 ppm (Colletotrichum acutatum) | inhibition of growth at 25 ppm (Glomerella cingulata)

C#Cc1cccc(Oc2nnc(C)cc2C(=O)NN(Cc2ccc(C)cc2C)C(=O)OC)c1 [b-138]
≥ 75%: inhibition of growth at 25 ppm (Botrytis cinerea [1]) | inhibition of growth at 25 ppm (Fusarium graminearum) | pest or weed control at 25 ppm (Botrytis cinerea [2]) | pest or weed control at 125 ppm (Botrytis cinerea [2]) | pest or weed control at 125 ppm (Venturia inaequalis) | inhibition of growth at 25 ppm (Colletotrichum acutatum) | inhibition of growth at 25 ppm (Glomerella cingulata)

COC(=O)N(Cc1ccc(C)cc1C)NC(=O)c1cc(C)nnc1Oc1ccccc1 [b-143]
≥ 75%: inhibition of growth at 25 ppm (Botrytis cinerea [1]) | inhibition of growth at 25 ppm (Fusarium graminearum) | inhibition of growth at 25 ppm (Colletotrichum acutatum) | inhibition of growth at 25 ppm (Glomerella cingulata)

COC(=O)N(Cc1ccc(OC)cc1C)NC(=O)c1cc(C#N)ncc1Oc1cccc(C2CC2)c1F [b-167]
≥ 75%: inhibition of growth at 25 ppm (Botrytis cinerea [1]) | inhibition of growth at 25 ppm (Fusarium graminearum) | inhibition of growth at 25 ppm (Colletotrichum acutatum) | inhibition of growth at 25 ppm (Glomerella cingulata)

COC(=O)N(Cc1ccc(C)cc1C)NC(=O)c1c(Oc2cccc(Cl)c2F)nnc2c1CCC2 [b-175]
≥ 75%: inhibition of growth at 25 ppm (Botrytis cinerea [1]) | inhibition of growth at 25 ppm (Fusarium graminearum) | inhibition of growth at 25 ppm (Colletotrichum acutatum) | inhibition of growth at 25 ppm (Glomerella cingulata)

COC(=O)N(Cc1ccc(C)cc1C)NC(=O)c1ccncc1Oc1ccccc1 [b-188]
≥ 75%: inhibition of growth at 25 ppm (Botrytis cinerea [1]) | inhibition of growth at 25 ppm (Fusarium graminearum) | pest or weed control at 25 ppm (Botrytis cinerea [2]) | pest or weed control at 125 ppm (Botrytis cinerea [2]) | pest or weed control at 125 ppm [3] | inhibition of growth at 25 ppm (Colletotrichum acutatum) | inhibition of growth at 25 ppm (Glomerella cingulata)

COC(=O)N(Cc1ccc(C)cc1C)NC(=O)c1cc(SC)ncc1Oc1cccc(C2CC2)c1F [b-194]
≥ 75%: inhibition of growth at 25 ppm (Botrytis cinerea [1]) | inhibition of growth at 25 ppm (Fusarium graminearum) | inhibition of growth at 25 ppm (Colletotrichum acutatum) | inhibition of growth at 25 ppm (Glomerella cingulata)

COC(=O)N(Cc1ccc(C)cc1C)NC(=O)c1c(F)cncc1Oc1cccc(Cl)c1F [b-200]
≥ 75%: inhibition of growth at 25 ppm (Botrytis cinerea [1]) | inhibition of growth at 25 ppm (Fusarium graminearum) | pest or weed control at 25 ppm (Botrytis cinerea [2]) | pest or weed control at 125 ppm (Botrytis cinerea [2]) | pest or weed control at 125 ppm [3] | inhibition of growth at 25 ppm (Colletotrichum acutatum) | inhibition of growth at 25 ppm (Glomerella cingulata)

COC(=O)N(Cc1ccc(OC)cc1C)NC(=O)c1c(Cl)cncc1Oc1cccc(Cl)c1F [b-207]
≥ 75%: inhibition of growth at 25 ppm (Botrytis cinerea [1]) | inhibition of growth at 25 ppm (Fusarium graminearum) | pest or weed control at 25 ppm (Botrytis cinerea [2]) | pest or weed control at 125 ppm (Botrytis cinerea [2]) | pest or weed control at 125 ppm [3] | inhibition of growth at 25 ppm (Colletotrichum acutatum) | inhibition of growth at 25 ppm (Glomerella cingulata)

COC(=O)N(Cc1ccc(C)cc1C)NC(=O)c1c(Oc2cccc(C3CC3)c2F)cnc2c1OC(C)(C)CC2 [b-209, Methyl 2-(7-(3-cyclopropyl-2-fluorophenoxy)-2,2-dimethyl-3,4-dihydro-2H-pyrano[3,2-b]pyridine-8-carbonyl)-1-(2,4-dimethylbenzyl)hydrazine-1-carboxylate]
≥ 75%: inhibition of growth at 25 ppm (Botrytis cinerea [1]) | inhibition of growth at 25 ppm (Fusarium graminearum) | pest or weed control at 25 ppm (Botrytis cinerea [2]) | pest or weed control at 125 ppm (Botrytis cinerea [2]) | inhibition of growth at 25 ppm (Colletotrichum acutatum) | inhibition of growth at 25 ppm (Glomerella cingulata)

C=Cc1cncc(Oc2cccc(C3CC3)c2F)c1C(=O)NN(Cc1ccc(C)cc1C)C(=O)OC [b-211]
≥ 75%: inhibition of growth at 25 ppm (Botrytis cinerea [1]) | inhibition of growth at 25 ppm (Fusarium graminearum) | pest or weed control at 25 ppm (Botrytis cinerea [2]) | pest or weed control at 125 ppm (Botrytis cinerea [2]) | pest or weed control at 125 ppm [3] | inhibition of growth at 25 ppm (Colletotrichum acutatum) | inhibition of growth at 25 ppm (Glomerella cingulata)

COC(=O)N(Cc1ccc(C)cc1C)NC(=O)c1c(Oc2cccc(C3CC3)c2F)cnc2c1OC(C)(C)C=C2 [b-213, Methyl 2-(7-(3-cyclopropyl-2-fluorophenoxy)-2,2-dimethyl-2H-pyrano[3,2-b]pyridine-8-carbonyl)-1-(2,4-dimethylbenzyl)hydrazine-1-carboxylate]
≥ 75%: inhibition of growth at 25 ppm (Botrytis cinerea [1]) | inhibition of growth at 25 ppm (Fusarium graminearum) | pest or weed control at 25 ppm (Botrytis cinerea [2]) | pest or weed control at 125 ppm (Botrytis cinerea [2]) | pest or weed control at 125 ppm [3] | inhibition of growth at 25 ppm (Colletotrichum acutatum) | inhibition of growth at 25 ppm (Glomerella cingulata)

CO/N=C/c1cncc(Oc2cccc(C3CC3)c2F)c1C(=O)NN(Cc1ccc(C)cc1C)C(=O)OC [b-214]
≥ 75%: inhibition of growth at 25 ppm (Botrytis cinerea [1]) | inhibition of growth at 25 ppm (Fusarium graminearum) | pest or weed control at 125 ppm (Botrytis cinerea [2]) | inhibition of growth at 25 ppm (Colletotrichum acutatum) | inhibition of growth at 25 ppm (Glomerella cingulata)

COC(=O)N(Cc1ccc(C)cc1C)NC(=O)c1cc(C)nnc1Oc1cccc(Cl)n1 [b-215]
≥ 75%: inhibition of growth at 25 ppm (Botrytis cinerea [1]) | inhibition of growth at 25 ppm (Fusarium graminearum) | inhibition of growth at 25 ppm (Colletotrichum acutatum) | inhibition of growth at 25 ppm (Glomerella cingulata)

C=C(OCC)c1cncc(Oc2cccc(C3CC3)c2F)c1C(=O)NN(Cc1ccc(C)cc1C)C(=O)OC [b-217]
≥ 75%: inhibition of growth at 25 ppm (Botrytis cinerea [1]) | inhibition of growth at 25 ppm (Fusarium graminearum) | inhibition of growth at 25 ppm (Colletotrichum acutatum) | inhibition of growth at 25 ppm (Glomerella cingulata)
